In one test the test system is Bacillus subtilis 168CA. As to the kind of experiment: Minimum Inhibitory Concentration (MIC) testing, broth microdilution, Bacillus subtilis. It counts as cell-based. Particulars: Bacillus subtilis 168CA; for MIC: read-out: Bacillus subtilis MICs Activity. Here is the method: (§1) Compounds of this invention were tested for antimicrobial activity by susceptibility testing in liquid media. MICs for compounds against each strain were determined by a broth microdilution method according to the National Committee for Clinical Laboratory Standards (NCCLS) guidelines. (NCCLS. 2000. Methods for dilution antimicrobial susceptibility tests for bacteria that grow aerobically—fifth edition. Approved standard M7-A5. NCCLS, Wayne, Pa.)
(§2) Briefly, test compounds are prepared in 100 μl of 1.6% DMSO solution in multiwell plates. Several bacterial colonies from a freshly streaked plate are transferred to an appropriate rich broth, such as Mueller Hinton. The cell suspension is adjusted to an optical density of 0.09 and further diluted 1:100 with warm 2× broth. This cell suspension is dispensed into the wells containing compound solution so that the final volume is 200 μl. The plates are incubated overnight (16-20 hours) at 37° C. and turbidity is scored by eye and quantified spectrophotometrically. The MIC is defined as the lowest concentration inhibiting visible growth.
Activities were scored as ‘A’ if the MIC was ≦8 micrograms/ml, ‘B’ if the MIC was 16 to 64 micrograms/ml and ‘C’ if the MIC was greater than 64 micrograms/ml.

The test system of test [1] is Staphylococcus aureus ATCC29213. As to the kind of experiment: Minimum Inhibitory Concentration (MIC) testing, broth microdilution, Staphylococcus aureus. It counts as cell-based. The following applies: Staphylococcus aureus ATCC29213; for MIC: read-out: Staphylococcus aureus MICs Activity. As for the experimental part: as §1, §2
Some of the compounds of the Examples were also tested for activity against the pathogenic organism Staphylococcus aureus ATCC29213. […] Activities were again scored as ‘A’ if the MIC was ≦8 micrograms/ml, ‘B’ if the MIC was 16 to 64 micrograms/ml and ‘C’ if the MIC was greater than 64 micrograms/ml.

39 molecules from patent US8088791B2, “Antibacterial agents” (Biots Scientific Management Pty Ltd, priority 2006, dated 2012) can be followed below.

Converted amounts (≈) assume the structure as drawn.

Regarding `NC(=O)c1c(F)ccc(OCc2nc3cc(C4CCCCC4)ccc3s2)c1F` [Example 315], the MIC (in the test with Bacillus subtilis 168CA; in test [1]) was < 8 µg/mL throughout. `CCCCCCOc1ccc(F)c(C(N)=O)c1F` [Example 81, 2,6-Difluoro-3-(hexyloxy)benzenecarboxamide]: the MIC (in the test on Bacillus subtilis 168CA; in test [1]) was < 8 µg/mL in each case. With `CC/C=C\CC/C=C/COc1cccc(C(N)=O)c1` [Example 56, 3-[(2E,6Z)-2,6-Nonadienyloxy]benzenecarboxamide], the MIC (in the test on Bacillus subtilis 168CA; in test [1]) was < 8 µg/mL in each case. Regarding `Cc1ccc2oc(COc3ccc(F)c(C(N)=O)c3F)nc2c1` [Example 212, 2,6-Difluoro-3-[(5-methyl-1,3-benzoxazol-2-yl)methoxy]benzenecarboxamide], the MIC was < 8 µg/mL with Bacillus subtilis 168CA and 16 to 64 µg/mL (≈ 50.3 to 201 µM) in test [1].

As for `CCCCCCCCCOc1ccc(F)c(C(N)=O)c1F` [Example 82, 2,6-Difluoro-3-(nonyloxy)benzenecarboxamide], the MIC (with Bacillus subtilis 168CA; in test [1]) was < 8 µg/mL in each case.

In the case of `NC(=O)c1c(F)ccc(OCc2nc(-c3ccc(Cl)cc3)c(Br)s2)c1F` [Example 159, 3-[5-Bromo-4-(4-chloro-phenyl)-thiazol-2-ylmethoxy]-2,6-difluoro-benzamide], the MIC (in the test on Bacillus subtilis 168CA; in test [1]) was < 8 µg/mL throughout.

With `CCOc1cccc(COc2ccc(F)c(C(N)=O)c2F)c1` [Example 196, 3-[(3-Ethoxybenzyl)oxy]-2,6-difluorobenzenecarboxamide], the results for the MIC (in the test on Bacillus subtilis 168CA; in test [1]) were < 8 µg/mL and 16 to 64 µg/mL (≈ 52.1 to 208 µM), respectively.

For `Cc1nn(-c2ccccc2)nc1COc1ccc(F)c(C(N)=O)c1F` [Example 325, 2,6-Difluoro-3-(5-methyl-2-phenyl-2H-[1,2,3]triazol-4-ylmethoxy)-benzamide], the MIC is < 8 µg/mL with Bacillus subtilis 168CA and 16 to 64 µg/mL (≈ 46.5 to 186 µM) in test [1].

On to `C=CCCCCCCOc1cccc(C(N)=O)c1` [Example 12, 3-(7-Octenyloxy)benzenecarboxamide], for which the MIC is 16 to 64 µg/mL (≈ 64.7 to 259 µM) in the test with Bacillus subtilis 168CA and < 8 µg/mL in test [1]. Regarding `CCCCCCCCCOc1cccc(C(N)=O)c1` [Example 1, 3-Nonyloxy-benzenecarboxamide], the MIC (in the test with Bacillus subtilis 168CA; in test [1]) was < 8 µg/mL throughout. In the case of `NC(=O)c1c(F)ccc(OCc2ccsc2)c1F` [Example 188, 2,6-Difluoro-3-(3-thienylmethoxy)benzenecarboxamide], the MIC (with Bacillus subtilis 168CA; in test [1]) was 16 to 64 µg/mL (≈ 59.4 to 238 µM) each time. On to `CCCCCCCOc1cccc(C(N)=O)c1` [Example 24, 3-(Heptyloxy)benzenecarboxamide], for which the MIC (in the test on Bacillus subtilis 168CA; in test [1]) was < 8 µg/mL in each case. Consider `NC(=O)c1c(F)ccc(OCc2csc3ccccc23)c1F` [Example 202, 3-(1-Benzothiophen-3-ylmethoxy)-2,6-difluorobenzenecarboxamide], for which the MIC was < 8 µg/mL in the test with Bacillus subtilis 168CA and 16 to 64 µg/mL (≈ 50.1 to 200 µM) in test [1].

In the case of “3-Pentyl-2,3-dihydro-1,4-benzodioxine-6-carboxamide and 2-pentyl-2,3-dihydro-1,4-benzodioxine-6-carboxamide [Example 95]”, the “Bacillus subtilis MICs Activity” value with Bacillus subtilis 168CA was “B (‘B’ if the MIC was 16 to 64 micrograms/ml)”. In addition, the “Staphylococcus aureus MICs Activity” value in test [1] was “C (‘C’ if the MIC was greater than 64 micrograms/ml)”. For the molecule `COc1cccc(COc2ccc(F)c(C(N)=O)c2F)c1` [Example 116, 2,6-Difluoro-3-(3-methoxybenzyloxy)-benzamide], the MIC (with Bacillus subtilis 168CA; in test [1]) was 16 to 64 µg/mL (≈ 54.6 to 218 µM) throughout. Take `Cc1cnc(COc2ccc(F)c(C(N)=O)c2F)s1` [Example 192, 2,6-Difluoro-3-[(5-methyl-1,3-thiazol-2-yl)methoxy]benzenecarboxamide]: the MIC (with Bacillus subtilis 168CA; in test [1]) was > 64 µg/mL throughout. For `NC(=O)c1c(F)ccc(OCc2nc(-c3cccc(O)c3)no2)c1F` [Example 257, 2,6-Difluoro-3-[3-(3-hydroxyphenyl)-1,2,4-oxadiazol-5-yl]methoxybenzenecarboxamide], the MIC (in the test on Bacillus subtilis 168CA; in test [1]) was < 8 µg/mL each time.

As to `CCCCCC/C=C/COc1ccc(F)c(C(N)=O)c1` [Example 74, 2-Fluoro-5-[(E)-2-nonenyloxy]benzenecarboxamide], the MIC (in the test on Bacillus subtilis 168CA; in test [1]) was < 8 µg/mL in each case. `NC(=O)c1c(F)ccc(OCc2ccc3c(Br)cccc3n2)c1F` [Example 151, 3-(5-Bromo-quinolin-2-ylmethoxy)-2,6-difluoro-benzamide]: the MIC was < 8 µg/mL in the test on Bacillus subtilis 168CA and 16 to 64 µg/mL (≈ 40.7 to 163 µM) in test [1]. The like results for `Cn1ccnc1COc1ccc(F)c(C(N)=O)c1F` [Example 194, 2,6-Difluoro-3-[(1-methyl-1H-imidazol-2-yl)methoxy]benzenecarboxamide] were, in that order, > 64 µg/mL and > 64 µg/mL.

Turning to `NC(=O)c1c(F)ccc(OCc2noc(-c3ccsc3)n2)c1F` [Example 150, 2,6-Difluoro-3-(5-thiophen-3-yl-[1,2,4]oxadiazol-3-ylmethoxy)-benzamide], the MIC is < 8 µg/mL with Bacillus subtilis 168CA and 16 to 64 µg/mL (≈ 47.4 to 190 µM) in test [1]. The matching figures for `CCCCCCOCCOc1ccc(F)c(C(N)=O)c1F` [Example 85, 2,6-Difluoro-3-[2-(hexyloxy)ethoxy]benzenecarboxamide]: < 8 µg/mL and < 8 µg/mL. With `NC(=O)c1c(F)ccc(OCCn2cccn2)c1F` [Example 144, 2,6-Difluoro-3-(2-pyrazol-1-yl-ethoxy) benzamide], the “Bacillus subtilis MICs Activity” value in the test on Bacillus subtilis 168CA was “C (‘C’ if the MIC was greater than 64 micrograms/ml)”. Moreover, the “Staphylococcus aureus MICs Activity” value in test [1] is reported as “C (‘C’ if the MIC was greater than 64 micrograms/ml)”. Take `NC(=O)c1c(F)ccc(OCc2nc(-c3ccccn3)cs2)c1F` [Example 115, 2,6-Difluoro-3-(4-pyridin-2-yl-thiazol-2-ylmethoxy)-benzamide]: the MIC was 16 to 64 µg/mL (≈ 46.1 to 184 µM) in the test on Bacillus subtilis 168CA and < 8 µg/mL in test [1]. The like results for `COc1ccc(-c2nc(COc3ccc(F)c(C(N)=O)c3F)sc2-c2nccs2)cc1` [Example 155, 2,6-Difluoro-3-[4′-(4-methoxy-phenyl)-[2,5′]bithiazolyl-2′-ylmethoxy]-benzamide] were, in that order, < 8 µg/mL and < 8 µg/mL. For `COc1ccc(-c2nc(COc3ccc(F)c(C(N)=O)c3F)sc2-c2ccncc2)cc1` [Example 127, 2,6-Difluoro-3-[4-(4-methoxy-phenyl)-5-pyridin-4-yl-thiazol-2-ylmethoxy]-benzamide], the MIC (in the test with Bacillus subtilis 168CA; in test [1]) was < 8 µg/mL in each case. As for `NC(=O)c1c(F)ccc(OCc2nc3cc(Cl)ncc3s2)c1F` [Example 156, 3-(6-Chloro-thiazolo[5,4-c]pyridin-2-ylmethoxy)-2,6-difluoro-benzamide], the MIC (in the test with Bacillus subtilis 168CA; in test [1]) was < 8 µg/mL in each case.

`NC(=O)c1c(F)ccc(OCc2noc(C=Cc3ccccc3)n2)c1F` [Example 149, 2,6-Difluoro-3-(5-styryl-[1,2,4]oxadiazol-3-ylmethoxy)-benzamide]: the MIC in the test on Bacillus subtilis 168CA is < 8 µg/mL; in test [1], 16 to 64 µg/mL (≈ 44.8 to 179 µM). The matching figures for `CCCc1sc(COc2ccc(F)c(C(N)=O)c2F)nc1-c1ccc(OC)cc1` [Example 118, 2,6-Difluoro-3-[4-(4-methoxy-phenyl)-5-propyl-thiazol-2-ylmethoxy]-benzamide]: < 8 µg/mL and < 8 µg/mL. The like results for `NC(=O)c1c(F)ccc(OCc2nc(-c3ccc(C(F)(F)F)cc3)no2)c1F` [Example 243, 2,6-Difluoro-3-(3-[4-(trifluoromethyl)phenyl]-1,2,4-oxadiazol-5-ylmethoxy)benzenecarboxamide] were, in that order, < 8 µg/mL and < 8 µg/mL. As to `NC(=O)c1c(F)ccc(OCc2cn3ccccc3n2)c1F` [Example 203, 2,6-Difluoro-3-(imidazo[1,2-a]pyridin-2-ylmethoxy)benzenecarboxamide], in the test with Bacillus subtilis 168CA, the MIC is > 64 µg/mL.

With `CCCOCCOc1cccc(C(N)=O)c1` [Example 16, 3-(2-Propoxyethoxy)benzenecarboxamide], the MIC in the test with Bacillus subtilis 168CA is > 64 µg/mL.

As to `NC(=O)c1c(F)ccc(OCc2ccc3cccc(Cl)c3n2)c1F` [Example 112, 3-(8-Chloro-quinolin-2-ylmethoxy)-2,6-difluoro-benzamide], the MIC in the test on Bacillus subtilis 168CA was < 8 µg/mL. In the case of `NC(=O)c1cccc(OCCCCC2CCCCC2)c1` [Example 44, 3-(4-Cyclohexylbutoxy)benzenecarboxamide], in the test with Bacillus subtilis 168CA, the MIC was < 8 µg/mL. The same measure, in the same setting: the figure for `CCCCOc1cccc(C(N)=O)c1` [Example 7, 3-Butoxybenzenecarboxamide] is > 64 µg/mL; for `NC(=O)c1c(F)ccc(OCc2ccc3ccccc3c2)c1F` [Example 113, 2,6-Difluoro-3-(naphthalen-2-ylmethoxy)-benzamide] it is < 8 µg/mL.

For the molecule `CCCOc1cccc(C(N)=O)c1` [Example 2, 3-Propoxybenzenecarboxamide], the MIC in the test on Bacillus subtilis 168CA is > 64 µg/mL. In the case of `NC(=O)c1c(F)ccc(OCc2nnc(-c3ccccc3)o2)c1F` [Example 238, 2,6-Difluoro-3-[(5-phenyl-1,3,4-oxadiazol-2-yl)methoxy]benzenecarboxamide], the MIC in the test with Bacillus subtilis 168CA is 16 to 64 µg/mL (≈ 48.3 to 193 µM). The same measure, in the same setting: the figure for `NC(=O)c1cccc(OCC2CC2)c1` [Example 4, 3-(Cyclopropylmethoxy)benzenecarboxamide] is > 64 µg/mL.
